Data taken from ChEMBL document CHEMBL1201862, “PubChem BioAssay data set” (2004).
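In this assay, cells in 96-well plates receive the compound at five concentrations for 48 hours. Endpoints are linearly interpolated between the surrounding concentrations. GI50 is the concentration that inhibits growth by half.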 The source made the active and inactive calls. Cut-off read from the data, not from the text of the source: active = GI50 up to about 1.1 µM and inactive = higher.

Legend:
Experiment in all cases: NCI anticancer screen, dose series, 48 h
[1] = system: 786-0
[2] = system: A498
[3] = system: A549
[4] = system: ACHN
[5] = system: CAKI-1
[6] = system: CCRF-CEM
[7] = system: COLO 205
[8] = system: DLD-1
[9] = system: DMS-114
[10] = system: DMS-273
[11] = system: EKVX
[12] = system: HCC 2998
[13] = system: HCT-116
[14] = system: HCT-15
[15] = system: HL-60
[16] = system: HOP-62
[17] = system: HOP-92
[18] = system: HT-29
[19] = system: IGROV-1
[20] = system: K562
[21] = system: KM-20L2
[22] = system: KM12
[23] = system: LOX IMVI
[24] = system: LXFL 529
[25] = system: M14
[26] = system: M19-MEL
[27] = system: MOLT-4
[28] = system: Malme-3M
[29] = system: NCI-H226
[30] = system: NCI-H23
[31] = system: NCI-H460
[32] = system: NCI-H522
[33] = system: OVCAR-3
[34] = system: OVCAR-4
[35] = system: OVCAR-5
[36] = system: OVCAR-8
[37] = system: RPMI-8226
[38] = system: RXF 631
[39] = system: SF-268
[40] = system: SF-295
[41] = system: SF-539
[42] = system: SK-MEL-28
[43] = system: SK-MEL-2
[44] = system: SK-MEL-5
[45] = system: SK-OV-3
[46] = system: SN12C
[47] = system: SNB-19
[48] = system: SNB-75
[49] = system: SW-620
[50] = system: TK-10
[51] = system: U-251
[52] = system: UACC-257
[53] = system: UACC-62
[54] = system: UO-31
[55] = system: XF498
[56] = system: HOP-18
[57] = system: RXF 393
[58] = system: SNB-78
[59] = system: SR

Cc1cc(N(CCC#N)CCC#N)ccc1CC1N=C(c2ccccc2)OC1=O (stereo not given)
GI50 [1]: > 100 µM (inactive)
GI50 [2]: > 100 µM (inactive)
GI50 [3]: > 100 µM (inactive)
GI50 [4]: > 100 µM (inactive)
GI50 [5]: > 100 µM (inactive)
GI50 [6]: > 100 µM (inactive)
GI50 [7]: > 100 µM (inactive)
GI50 [8]: > 100 µM (inactive)
GI50 [9]: > 100 µM (inactive)
GI50 [10]: > 100 µM (inactive)
GI50 [11]: > 100 µM (inactive)
GI50 [12]: > 100 µM (inactive)
GI50 [13]: > 100 µM (inactive)
GI50 [14]: > 100 µM
GI50 [15]: > 100 µM (inactive)
GI50 [16]: > 100 µM (inactive)
GI50 [17]: > 100 µM (inactive)
GI50 [18]: > 100 µM (inactive)
GI50 [19]: > 100 µM (inactive)
GI50 [20]: > 100 µM (inactive)
GI50 [21]: > 100 µM (inactive)
GI50 [22]: > 100 µM (inactive)
GI50 [23]: > 100 µM (inactive)
GI50 [24]: > 100 µM (inactive)
GI50 [25]: > 100 µM (inactive)
GI50 [26]: > 100 µM (inactive)
GI50 [27]: > 100 µM (inactive)
GI50 [28]: > 100 µM (inactive)
GI50 [29]: 64.1 µM (inactive)
GI50 [30]: > 100 µM (inactive)
GI50 [31]: > 100 µM (inactive)
GI50 [32]: > 100 µM (inactive)
GI50 [33]: > 100 µM (inactive)
GI50 [34]: > 100 µM (inactive)
GI50 [35]: > 100 µM (inactive)
GI50 [36]: > 100 µM (inactive)
GI50 [37]: > 100 µM (inactive)
GI50 [38]: > 100 µM (inactive)
GI50 [39]: > 100 µM (inactive)
GI50 [40]: > 100 µM (inactive)
GI50 [41]: > 100 µM (inactive)
GI50 [42]: > 100 µM (inactive)
GI50 [43]: > 100 µM (inactive)
GI50 [44]: > 100 µM (inactive)
GI50 [45]: > 100 µM (inactive)
GI50 [46]: > 100 µM (inactive)
GI50 [47]: > 100 µM (inactive)
GI50 [48]: > 100 µM (inactive)
GI50 [49]: > 100 µM (inactive)
GI50 [50]: > 100 µM (inactive)
GI50 [51]: > 100 µM (inactive)
GI50 [52]: > 100 µM (inactive)
GI50 [53]: > 100 µM (inactive)
GI50 [54]: > 100 µM (inactive)
GI50 [55]: > 100 µM (inactive)

COc1cc(C(=O)C/C(CCC(=O)Nc2ccccc2[N+](=O)[O-])=N\NC(=O)C(N)=O)ccc1O
GI50 [1]: > 100 µM (inactive)
GI50 [3]: > 100 µM (inactive)
GI50 [4]: > 100 µM (inactive)
GI50 [5]: > 100 µM (inactive)
GI50 [6]: > 100 µM (inactive)
GI50 [7]: > 100 µM (inactive)
GI50 [8]: > 100 µM (inactive)
GI50 [9]: > 100 µM (inactive)
GI50 [10]: > 100 µM (inactive)
GI50 [11]: > 100 µM (inactive)
GI50 [13]: > 100 µM (inactive)
GI50 [14]: > 100 µM
GI50 [15]: > 100 µM (inactive)
GI50 [56]: > 100 µM (inactive)
GI50 [16]: > 100 µM (inactive)
GI50 [17]: 65.3 µM (inactive)
GI50 [18]: > 100 µM (inactive)
GI50 [19]: > 100 µM (inactive)
GI50 [20]: > 100 µM (inactive)
GI50 [21]: > 100 µM (inactive)
GI50 [22]: > 100 µM (inactive)
GI50 [23]: > 100 µM (inactive)
GI50 [24]: > 100 µM (inactive)
GI50 [25]: > 100 µM (inactive)
GI50 [26]: > 100 µM (inactive)
GI50 [27]: > 100 µM (inactive)
GI50 [29]: > 100 µM (inactive)
GI50 [30]: > 100 µM (inactive)
GI50 [31]: > 100 µM (inactive)
GI50 [33]: > 100 µM (inactive)
GI50 [34]: > 100 µM (inactive)
GI50 [35]: > 100 µM (inactive)
GI50 [36]: > 100 µM (inactive)
GI50 [57]: 76.4 µM (inactive)
GI50 [38]: > 100 µM (inactive)
GI50 [39]: > 100 µM (inactive)
GI50 [40]: > 100 µM (inactive)
GI50 [41]: > 100 µM (inactive)
GI50 [42]: > 100 µM (inactive)
GI50 [43]: > 100 µM (inactive)
GI50 [45]: > 100 µM (inactive)
GI50 [47]: > 100 µM (inactive)
GI50 [58]: > 100 µM (inactive)
GI50 [59]: > 100 µM (inactive)
GI50 [49]: > 100 µM (inactive)
GI50 [50]: > 100 µM (inactive)
GI50 [51]: > 100 µM (inactive)
GI50 [52]: > 100 µM (inactive)
GI50 [53]: > 100 µM (inactive)
GI50 [54]: > 100 µM (inactive)
